The source of these data is patent US20240317721A1, “PYRAZOLYL DERIVATIVES AS INHIBITORS OF THE KRAS MUTANT PROTEIN” (NOVARTIS AG, priority 2021, published 2024).

The assay deals with KRasG12C (M1-K169, biotinylated on the N-terminus) (Homo sapiens (Human), UniProt P01116, G12C). Description: Covalent competition assay: scintillation proximity assay (SPA) quantifying covalent modification of KRASG12C. In kind it is binding. Conditions: competition with radiolabeled covalent probe (Compound B/Compound A), 2 hours incubation, 10 nM KRasG12C. Put shortly: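 Test compounds compete with a radiolabeled covalent probe for modification of N-terminally biotinylated KRasG12C(M1-K169):GDP, final 10 nM protein, 25 nM radio-ligand, 475 nM unlabelled ligand, 2 h with agitation in 20 mM Tris-HCl pH 7.5, 150 mM NaCl, 0.1 mM MgCl2, 0.01% Tween-20.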
As for `C=CC(=O)N1CC2(CC(n3nc(N4CCC(CN5CCN(C)C(=O)C5)CC4(C)C)c(-c4c(Cl)c(Cl)cc5[nH]ncc45)c3C)C2)C1` (single isomer, unassigned) [Example 239b, 4-((1-(1-(2-acryloyl-2-azaspiro[3.3]heptan-6-yl)-4-(5,6-dichloro-1H-indazol-4-yl)-5-methyl-1H-pyrazol-3-yl)-2,2-dimethylpiperidin-4-yl)methyl)-1-methylpiperazin-2-one], the IC50 came out at 9 nM.

As to `C=CC(=O)N1CC2(CC(n3nc(N4CCCc5c(cnn5C)C4)c(-c4c(Cl)c(C)cc5[nH]ncc45)c3C)C2)C1` (single isomer, unassigned) [Example 43b, 1-(6-(4-(5-chloro-6-methyl-1H-indazol-4-yl)-5-methyl-3-(1-methyl-4,6,7,8-tetrahydropyrazolo[4,3-c]azepin-5(1H)-yl)-1H-pyrazol-1-yl)-2-azaspiro[3.3]heptan-2-yl)prop-2-en-1-one], the IC50 was 758 nM. On to `C=CC(=O)N1CC2(CC(n3nc(N4CC[C@@H](CN5CCC6COCC65)CC4(C)C)c(-c4c(C)c(Cl)cc5[nH]ncc45)c3C)C2)C1` (single isomer, unassigned) [Example 305a, 1-(6-(4-(6-chloro-5-methyl-1H-indazol-4-yl)-3-((R)-4-(((3aR*,6aR*)-hexahydro-1H-furo[3,4-b]pyrrol-1-yl)methyl)-2,2-dimethylpiperidin-1-yl)-5-methyl-1H-pyrazol-1-yl)-2-azaspiro[3.3]heptan-2-yl)prop-2-en-1-one], for which the half-inhibitory concentration (IC50) is 2500 nM.

Regarding `C=CC(=O)N1CC2(CC(n3nc(N4CC[C@@H](CN5CCN(C6COC6)CC5)CC4(C)C)c(-c4c(Cl)c(F)cc5[nH]ncc45)c3C)C2)C1` (single isomer, unassigned) [Example 245a], the IC50 came to 1800 nM. For the molecule `C=CC(=O)N1CC2(CC(n3nc(N4CCN(C5COC5)CC45CCC5)c(-c4c(Cl)c(C)cc5[nH]nc(N)c45)c3C)C2)C1` (single isomer, unassigned) [Example 114a, 1-(6-(4-(3-amino-5-chloro-6-methyl-1H-indazol-4-yl)-5-methyl-3-(8-(oxetan-3-yl)-5,8-diazaspiro[3.5]nonan-5-yl)-1H-pyrazol-1-yl)-2-azaspiro[3.3]heptan-2-yl)prop-2-en-1-one], the IC50 amounted to 7 nM. Turning to `C=CC(=O)N1CC2(CC(n3nc(N4[C@H]5CC[C@@H]4CN(C)CC5)c(-c4c(Cl)c(C)cc5[nH]ncc45)c3C)C2)C1` [Example 64, 1-(6-(4-(5-chloro-6-methyl-1H-indazol-4-yl)-5-methyl-3-((1R,6S)-3-methyl-3,9-diazabicyclo[4.2.1]nonan-9-yl)-1H-pyrazol-1-yl)-2-azaspiro[3.3]heptan-2-yl)prop-2-en-1-one], the half-maximal inhibitory concentration (IC50) was 519 nM.

Take `C=CC(=O)N1CC2(CC(n3nc(N4CCN(c5ccnnc5)C[C@]4(C)CC)c(-c4c(Cl)c(C)cc5[nH]ncc45)c3C)C2)C1` (single isomer, unassigned) [Example 192b]: the IC50 is 8 nM. Consider `C=CC(=O)N1CC2(CC(n3nc(N4CCN(C(C)(C)C(=O)OC)CC45CCC5)c(-c4c(Cl)c(C)cc5[nH]ncc45)c3C)C2)C1` (single isomer, unassigned) [Example 180b, methyl 2-(5-(1-(2-acryloyl-2-azaspiro[3.3]heptan-6-yl)-4-(5-chloro-6-methyl-1H-indazol-4-yl)-5-methyl-1H-pyrazol-3-yl)-5,8-diazaspiro[3.5]nonan-8-yl)-2-methylpropanoate], for which the IC50 amounted to 17 nM. Consider `C=CC(=O)N1CC2(CC(n3nc(N4CC(=O)N(C)CC45CCC5)c(-c4c(Cl)c(C)cc5[nH]ncc45)c3C)C2)C1` (single isomer, unassigned) [Example 65b, 5-(1-(2-acryloyl-2-azaspiro[3.3]heptan-6-yl)-4-(5-chloro-6-methyl-1H-indazol-4-yl)-5-methyl-1H-pyrazol-3-yl)-8-methyl-5,8-diazaspiro[3.5]nonan-7-one], for which the half-maximal inhibitory concentration (IC50) is 212 nM. The same measure for `C=CC(=O)N1CC2(CC(n3nc(N4CC[C@@H](CN5CCOCC5)CC4(C)C)c(-c4c(Cl)c(C)cc5[nH]nc(N)c45)c3C)C2)C1` (single isomer, unassigned) [Example 242b]: 1400 nM. The value for `C=CC(=O)N1CC2(CC(n3nc(N4CC[C@@H](CN5CCN(S(C)(=O)=O)CC5)CC4(C)C)c(-c4c(Cl)c(Cl)cc5[nH]ncc45)c3C)C2)C1` (single isomer, unassigned) [Example 298a] was 1000 nM; that for `C=CC(=O)N1CC2(CC(n3nc(N4CC[C@@H](CN5CCCC6CN(C)C(=O)C65)CC4(C)C)c(-c4c(Cl)c(Cl)cc5[nH]ncc45)c3C)C2)C1` (single isomer, unassigned) [Example 261a, (4aR*,7aR*)-1-(((R)-1-(1-(2-acryloyl-2-azaspiro[3.3]heptan-6-yl)-4-(5,6-dichloro-1H-indazol-4-yl)-5-methyl-1H-pyrazol-3-yl)-2,2-dimethylpiperidin-4-yl)methyl)-6-methyloctahydro-7H-pyrrolo[3,4-b]pyridin-7-one] was > 5000 nM.

In the case of `C=CC(=O)N1CC2(CC(n3nc(N4CC[C@@H](CN5CCO[C@@H](CO)C5)CC4(C)C)c(-c4c(Cl)c(Cl)cc5[nH]ncc45)c3C)C2)C1` (single isomer, unassigned) [Example 247a], the IC50 stood at 1400 nM. For `C=CC(=O)N1CC2(CC(n3nc(N4CCN(C5CCOCC5)C[C@@]4(CC)C(F)F)c(-c4c(Cl)c(C)cc5[nH]ncc45)c3C)C2)C1` (single isomer, unassigned) [Example 156b], the half-maximal inhibitory concentration (IC50) was found to be 8 nM. As for `C=CC(=O)N1CC2(CC(n3nc(N4CC[C@@H](CN5CC6(CCCO6)C5)CC4(C)C)c(-c4c(Cl)c(Cl)cc5[nH]ncc45)c3C)C2)C1` (single isomer, unassigned) [Example 234a], the IC50 amounted to 1000 nM.

Regarding `C=CC(=O)N1CC2(CC(n3nc(N4CCS(=O)(=O)CC4(C)C)c(-c4c(Cl)c(C)cc5[nH]ncc45)c3C)C2)C1` (single isomer, unassigned) [Example 82b, 1-(6-(4-(5-chloro-6-methyl-1H-indazol-4-yl)-3-(3,3-dimethyl-1,1-dioxidothiomorpholino)-5-methyl-1H-pyrazol-1-yl)-2-azaspiro[3.3]heptan-2-yl)prop-2-en-1-one], the 50% inhibitory concentration (IC50) was determined as 831 nM.

Turning to `C=CC(=O)N1CC2(CC(n3nc(N4CCN(C(C)=O)CC4)c(-c4c(Cl)ccc5[nH]ncc45)c3C)C2)C1` (single isomer, unassigned) [Example 36a, 1-(6-(3-(4-acetylpiperazin-1-yl)-4-(5-chloro-1H-indazol-4-yl)-5-methyl-1H-pyrazol-1-yl)-2-azaspiro[3.3]heptan-2-yl)prop-2-en-1-one], the IC50 turned out to be 24400 nM. As for `C=CC(=O)N1CC2(CC(n3nc(N4CC[C@@H](CN(C5COC5)C5COC5)CC4(C)C)c(-c4c(Cl)c(Cl)cc5[nH]ncc45)c3C)C2)C1` (single isomer, unassigned) [Example 282a], the half-maximal inhibitory concentration (IC50) was 1500 nM. As to `C=CC(=O)N1CC2(CC(n3nc(N4CCN(C5CCOCC5)CC45CCC5)c(-c4c(Cl)c(C)cc5[nH]ncc45)c3C)C2)C1` (single isomer, unassigned) [Example 130b, 1-(6-(4-(5-Chloro-6-methyl-1H-indazol-4-yl)-5-methyl-3-(8-(tetrahydro-2H-pyran-4-yl)-5,8-diazaspiro[3.5]nonan-5-yl)-1H-pyrazol-1-yl)-2-azaspiro[3.3]heptan-2-yl)prop-2-en-1-one], the IC50 came to 32 nM.
